# Measurements from publication PMC3199943, “Screening the MayBridge Rule of 3 Fragment Library for Compounds That Interact with the Trypanosoma brucei myo-Inositol-3-Phosphate Synthase and/or Show Trypanocidal Activity” (Molecular Biology International, 2011).
# Where a name gives a salt, the structure may show the parent alone. Read-outs that look alike come from different tables or passages of the source.
# Key:
# TbINO1 = target: T1, TbINO1 (Trypanosoma brucei brucei, UniProt Q5QQ46); experiment: biochemical; type: binding; conditions: for TbINO1 Tm increase: positive control
# T1 sequence (Q5QQ46 1-528): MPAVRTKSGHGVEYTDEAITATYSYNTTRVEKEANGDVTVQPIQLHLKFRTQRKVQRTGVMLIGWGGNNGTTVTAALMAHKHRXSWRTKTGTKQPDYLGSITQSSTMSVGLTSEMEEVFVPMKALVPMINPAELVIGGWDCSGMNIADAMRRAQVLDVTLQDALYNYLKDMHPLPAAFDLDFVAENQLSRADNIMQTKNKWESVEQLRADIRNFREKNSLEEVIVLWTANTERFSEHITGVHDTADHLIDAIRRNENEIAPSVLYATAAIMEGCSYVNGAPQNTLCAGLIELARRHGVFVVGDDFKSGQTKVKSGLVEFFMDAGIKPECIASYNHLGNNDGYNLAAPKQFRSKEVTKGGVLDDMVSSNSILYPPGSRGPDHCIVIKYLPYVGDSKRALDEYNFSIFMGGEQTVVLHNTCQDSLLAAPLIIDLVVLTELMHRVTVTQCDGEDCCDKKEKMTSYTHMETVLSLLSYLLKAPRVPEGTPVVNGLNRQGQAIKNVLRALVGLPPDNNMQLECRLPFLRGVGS
# HeLa cells = experiment: cells; conditions: for viability at 500 µM: Homo sapiens, HeLa, 65 h; for HeLa Cells Alamar Blue: Supplementary Table 1
# Procedure, shortened: (§1)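 Seed HeLa/A549 at 2 × 10^4 cells/well in DMEM/10% FCS/2 mM L-Gln; treat ~65 h; add Alamar Blue, 5 h more.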
# A549 cells = experiment: Cytotoxicity against A549 cells, Alamar Blue; type: cell-based; conditions: Supplementary Table 1, compound 0.5 mM, percentage of controls (n=1); for viability at 500 µM: Homo sapiens, A549, 65 h
# Procedure, shortened: as §1
# [1] = read-out: Tb Ino1 Tm Shift [˚C]
# [2] = read-out: HeLa Cells Alamar Blue
# [3] = compound 0.5 mM, percentage of controls, mean ± SD (n=3) or SE (n=2)
ΔTm at 1000 µM (TbINO1; [1]),Structure (SMILES),viability at 500 µM (HeLa cells; [2]),viability at 500 µM (A549 cells),further results
0.32 ± 0.07 °C,"O=C(Nc1ccncc1)c1ccccc1 [compound 603, N1‐(4‐pyridyl)benzamide]",79 ± 15.1%,57.3%,–
0.24 ± 0.07 °C,"Cc1csc2ncnc(Cl)c12 [compound 486, 4‐chloro‐5‐methylthieno[2,3‐d]pyrimidine]",101 ± 12.2%,111%,–
0.14 ± 0.07 °C,"NCc1ccc(N2CCCC2)cc1 [compound 414, [4‐(1‐pyrrolidinyl)phenyl]methanamine]",68 ± 13.7%,96.8%,–
0.73 ± 0.06 °C,"O=C(O)c1ccc2ncsc2c1 [compound 444, 1,3‐benzothiazole‐6‐carboxylic acid]",92 ± 9.7%,63.5%,–
0.2 ± 0.06 °C,"Cc1cc(N)[nH]n1 [compound 6, 3‐methyl‐1H‐pyrazol‐5‐amine]",102 ± 3.3%,121%,–
–,"O=C(O)CCC(=O)c1cccs1 [compound 478, 4-oxo-4-(2-thienyl)butanoic acid]",106 ± 9.3%,92.3%,ΔTm at 1000 µM (TbINO1; read-out: TbIno1 Tm shift [°C]): 2.58 ± 0.05 °C; viability at 500 µM (HeLa cells; read-out: HeLa Cells Alamar Blue (% survival)): 106 ± 9.3%
0.13 ± 0.08 °C,"Cc1nc(CO)c(C)o1 [compound 78, (2,5‐dimethyl‐1,3‐oxazol‐4‐yl)methanol]",92.7 ± 11.5%,110%,–
0.36 ± 0.06 °C,"O=C(O)c1ccc(-c2nccs2)cc1 [compound 662, 4‐(1,3‐thiazol‐2‐yl)benzoic acid]",102 ± 7.2%,100%,–
–,"N#Cc1cc(-c2ccccc2)oc1N [compound 477, 2‐amino‐5‐phenyl‐3‐furonitrile]",98.3 ± 18.6%,97.4%,"ΔTm at 1000 µM (TbINO1; Supplementary Table 1, compound 1mM, mean ± SD from Boltzman curve fitting, read-out: Tb Ino1 Tm Shift [˚C]): 0.04 ± 0.1 °C"
–,"CN(C)CCOc1ccccc1CO [compound 593, {2‐[2‐(dimethylamino)ethoxy]phenyl}methanol]",–,–,"Tb Ino1 Tm Shift [˚C] (TbINO1; Supplementary Table 1, compound 1mM, mean ± SD from Boltzman curve fitting): 0.13 ± 0.06 °C; HeLa Cells Alamar Blue (HeLa cells; [3]): 77.9 ± 13.5 percentage of controls; A549 Cells Alamar Blue (A549 cells): 59.2 percentage of controls"
–,"O=CC[C@@H](O)[C@H](O)[C@H](O)COP(=O)(O)O [2-deoxy-glucose-6-phosphate, reference compound]",–,–,"TbINO1 Tm increase (TbINO1; inhibitor, 4 mM): 2.84 ± 0.47 °C"
–,"O=C[C@H](O)[C@@H](O)[C@H](O)[C@H](O)COP(=O)(O)O [glucose-6-phosphate, reference compound]",–,–,"TbINO1 Tm increase (TbINO1; substrate, 5 mM): 0.70 ± 0.28 °C"
–,"OCc1cccc(-c2cncnc2)c1 [compound 504, (3‐pyrimidin‐5‐ylphenyl)methanol]",88.7 ± 9.9%,88.2%,–
–,"N#Cc1cnccc1C(F)(F)F [compound 358, 4‐(trifluoromethyl)nicotinonitrile]",103 ± 1.7%,129%,–
–,"Cn1nc(-c2ccccc2)cc1N [compound 376, 1‐methyl‐3‐phenyl‐1H‐pyrazol‐5‐amine]",82.6 ± 4.6%,64.7%,–
–,"CC12CCC(O)(CC1)CC2=O [compound 222, 4‐hydroxy‐1‐methylbicyclo[2.2.2]octan‐2‐one]",–,–,HeLa Cells Alamar Blue (HeLa cells; [3]): 101.8 ± 5.9 percentage of controls; A549 Cells Alamar Blue (A549 cells): 82.3 percentage of controls
–,"CC12CCC(CC1=NO)C2(C)C (stereo not shown) [compound 332, 1,7,7‐trimethylbicyclo[2.2.1]heptan‐2‐one oxime]",–,–,HeLa Cells Alamar Blue (HeLa cells; [3]): 110.6 ± 8.3 percentage of controls; A549 Cells Alamar Blue (A549 cells): 93.9 percentage of controls
–,"ON=C1CN2CCC1CC2 [compound 416, quinuclidin‐3‐one oxime hydrochloride]",107 ± 9.6%,109%,–
–,"Cc1nc2ccc(N)cc2s1 [compound 302, 2‐methyl‐1,3‐benzothiazol‐6‐ylamine]",71.9 ± 12.4%,62.3%,–
–,"COC(=O)c1cc2ccccc2cn1 [compound 514, methyl isoquinoline‐3‐carboxylate]",79.5 ± 14.3%,65.3%,–

Structure (SMILES),ΔTm at 1000 µM (TbINO1; [1]),viability at 500 µM (HeLa cells; [2]),viability at 500 µM (A549 cells),further results
"Oc1noc2ccccc12 [compound 112, benzo[d]isoxazol‐3‐ol]",0.23 ± 0.06 °C,–,76.7%,"viability at 500 µM (HeLa cells; read-out: HeLa Cells Alamar Blue, Supplementary Table 1, compound 0.5 mM, percentage of controls, mean ± SD (n=3) or SE (n=2)): 83 ± 11.2%"
